Values after ≈ are worked out from the molar mass of the structure shown.

Usually LC50 stands for the concentration lethal to half of the exposed cells or organisms. A lower LC50 goes with greater toxicity. Broadly, the MIC is the lowest concentration that inhibits growth of the organism. The low end stands for inhibition by little substance, the high end for a need for much substance.

Data set [1] has as its system Agrobacterium tumefaciens. Kind of data set: Antitumor activity assessed as inhibition of Agrobacterium tumefaciens B6-induced tumor formation after 12 days by potato disk assay. In kind it is functional.
Another data set concerns Artemia. Kind of data set: Toxicity against brine shrimp. In kind it is organism-based. The conditions noted are these: in vivo.
Another data set deals with Staphylococcus aureus. Kind of data set: Antimicrobial activity against Staphylococcus aureus ATCC 25293 by serial dilution method. The class given is functional.

In the case of `CC1=CCC[C@H]2[C@](C)(CC3=CC(=O)C=C(N)C3=O)[C@@H](C)CC[C@]12C`, the “inhibition (INH)” value in data set [1] stood at 53%. Further, in the data set on Artemia, the LC50 is 0.24 ppm. The MIC against Staphylococcus aureus was determined as 50 µg/mL (≈ 153 µM).

`CC1=CCC[C@H]2[C@](C)(CC3=CC(=O)C(N)=CC3=O)[C@@H](C)CC[C@]12C`: the “inhibition (INH)” value in data set [1] came out at 55%. This molecule showed an LC50 with Artemia of 0.23 ppm. For the same molecule, the MIC in the data set with Staphylococcus aureus came out at 50 µg/mL (≈ 153 µM).

`CC1(C)S[C@@H]2[C@H](NC(=O)Cc3ccccc3)C(=O)N2[C@H]1C(=O)[O-].[Na+]` [PENICILLIN G SODIUM] returned a minimum inhibitory concentration (MIC) in the data set on Staphylococcus aureus of 0.04 µg/mL.

Consider `CNC1=CC(=O)C(C[C@]2(C)[C@@H](C)CC[C@]3(C)C(C)=CCC[C@@H]23)=CC1=O`, for which the “inhibition (INH)” value in data set [1] is listed as 57%. Besides, the LC50 in the data set on Artemia was 0.34 ppm. Moreover, in the data set on Staphylococcus aureus, the MIC is more than 100 µg/mL.

Turning to `CC1=CCC[C@H]2[C@](C)(CC3=CC(=O)C(N[C@@H](C)C(=O)O)=CC3=O)[C@@H](C)CC[C@]12C`, the “inhibition (INH)” value in data set [1] came out at 38%. For the same molecule, in the data set on Artemia, the 50% lethal concentration (LC50) worked out at 2 ppm. Further, 6.25 µg/mL (≈ 15.6 µM) was the least that counted as inhibitory in the data set on Staphylococcus aureus (MIC).

Regarding `CCNC1=CC(=O)C(C[C@]2(C)[C@@H](C)CC[C@]3(C)C(C)=CCC[C@@H]23)=CC1=O`, the “inhibition (INH)” value in data set [1] worked out at 38%. The molecule further had a 50% lethal concentration (LC50) in the data set with Artemia of 0.27 ppm. The MIC in the data set with Staphylococcus aureus is more than 100 µg/mL.

In the case of `CC1=CCC[C@H]2[C@](C)(CC3=CC(=O)C(N[C@@H]4[C@@H](O)[C@H](O)[C@@H](CO)O[C@H]4O)=CC3=O)[C@@H](C)CC[C@]12C`, the “inhibition (INH)” value in data set [1] turned out to be 38%. This molecule also had an LC50 in the data set on Artemia of 11.5 ppm. In addition, the minimal inhibitory concentration (MIC) against Staphylococcus aureus is 6.25 µg/mL (≈ 12.8 µM).

As for `CC1=CCC[C@H]2[C@](C)(CC3=CC(=O)C=CC3=O)[C@@H](C)CC[C@]12C` [AVARONE], the “inhibition (INH)” value in data set [1] turned out to be 63%. Besides, the LC50 in the data set with Artemia was 0.14 ppm. This molecule gave an MIC against Staphylococcus aureus of 1.56 µg/mL (≈ 4.99 µM).

For the molecule `CC1=CCC[C@H]2[C@](C)(Cc3cc(=O)c4[nH]c5ncnc6ncn(c=4c3=O)c65)[C@@H](C)CC[C@]12C`, in data set [1], the “inhibition (INH)” value worked out at 27%. Besides, the LC50 with Artemia worked out at 70.2 ppm. In the data set on Staphylococcus aureus, this molecule registered an MIC of 12.5 µg/mL (≈ 28.2 µM).

Turning to `CCNC1=CC(=O)C=C(C[C@]2(C)[C@@H](C)CC[C@]3(C)C(C)=CCC[C@@H]23)C1=O`, the “inhibition (INH)” value in data set [1] was determined as 54%. The molecule also registered an LC50 in the data set with Artemia of 0.81 ppm. The same molecule had an MIC with Staphylococcus aureus of more than 100 µg/mL.
